Data on 23 compounds can be found in PMC12090178, “Exploring the Potential of Homologous Recombination Protein PALB2 in Synthetic Lethal Combinations” (ACS Chemical Biology, 2025).

pKd: −log10 of the molar value. Like-named read-outs stand apart in the source and are kept apart here. Where a SMILES comes first, the peptide text is derived from it. Where no end group is shown, it is not given here. The star is where a group is joined. Azidoacetyl = [N-]=[N+]=NCC(=O)*; Cbz = O=C(OCc1ccccc1)*

The subject of test [1] is HEK293 PALB2 IKZF3d/IKZF3d knock-in cells. The test is described as follows: Cell viability assay (WST-1). The test is classed as cell-based. To be noted: homozygous KI cells pretreated with 10 μM Pom, then DNA damaging drug, 5 days cotreatment, WST1. For orientation: Formazan colour is commonly taken as a measure of viable cells.
In test [2] the target is T1, PALB2 C-terminal domain (PALB2C) (Homo sapiens, UniProt Q86YC2).
T1 construct: C terminal part of Palb2 (aa 835-1186); His tag (C); 3C protease site; host or cells: Hi5 insect cells (virus produced and amplified in Sf9)
T1 sequence (Q86YC2 835-1186): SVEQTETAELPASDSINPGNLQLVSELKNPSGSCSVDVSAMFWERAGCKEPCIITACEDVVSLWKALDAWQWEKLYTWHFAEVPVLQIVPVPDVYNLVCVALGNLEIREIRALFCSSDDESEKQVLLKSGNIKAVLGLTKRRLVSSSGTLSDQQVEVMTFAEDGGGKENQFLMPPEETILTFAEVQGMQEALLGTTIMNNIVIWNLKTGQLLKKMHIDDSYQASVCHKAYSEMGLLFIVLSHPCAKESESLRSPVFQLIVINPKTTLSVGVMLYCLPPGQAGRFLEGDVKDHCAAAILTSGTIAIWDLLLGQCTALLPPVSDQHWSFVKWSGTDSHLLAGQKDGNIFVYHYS
The test is described as follows: Direct fluorescence polarization of labelled BRCA2 peptides. Type of test: binding. To be noted: for pKd: direct FP, PALB2C source Hi5 insect cells, labelled peptide 10 nM, PALB2C serially diluted from 4.4 μM, 20 mM HEPES, 100 mM NaCl, 1 mM DTT, 1 mM EDTA, 0.01% IGEPAL CA-630, 20 min RT, read at 25 °C, N = 3-20. As for the experimental part: FLU-GG-[…] (Peptide Protein Research Ltd., Fareham, UK) was dissolved in DMSO at 1 μM. PALB2C (22 μM, in 20 mM HEPES, 100 mM NaCl, 1 mM DTT, 1 mM EDTA) was diluted to a final concentration of 4.4 μM (same buffer supplemented with 0.01% (v/v) IGEPAL CA-630). The protein was serially diluted and fluorescent peptide was added to a final concentration of 10 nM. After incubation in the dark at RT for 20 min, fluorescence polarization was measured (ex: 485:20, em: 535:25, 25 °C). KD was obtained by fitting the signal to a binding model using the python lmfit package with the nonlinear least-squares method.[51]
9 Fluorescent polarization assay
9.1.1 Insect cell expression
PALB2-C was synthesized by the EPFL protein production facility0F1. In short; the virus was produced and amplified in Sf9 cells. C-terminal His-Tagged 3C-PALB2C was grown in 5 L o f Hi5 cells and harvested after 3 days. Pellet was frozen, defrosted and resuspended in 200 mL of wash buffer, supplemented to 5 % glycerol (v/v), 50 μL benzonase, and 2 protease inhibitor tablets. The mixture was clarified with a French press for a total of 4 cycles and centrifu g e d a t 32 kcfg for 1 h. The supernatant was decanted, supplemented with imidazole to a final concentration of 25 mM and added to 5 mL of Ni-NTA bead s. The b ead s were in cub ated with […]
The beads were washed with 40 column volumes (CV) with wash buffer (500 mM NaCl, 20 mM HEPES, pH 7.5), 10 CV with wash buffer and 50 mM imid az o le . The protein was eluted with 6 CV of elution buffer (500 mM NaCl, 20 mM HEPES, 300 mM imidazole, pH 7.5) to a total volume of 38 mL. The elute was concentrated to 1 mL and injected onto a pre-equilibrated Superdex 200 10/300GL column (250 mM NaCl, 10 mM HEPES, 5 mM DTT, 1 mM EDTA, pH […]
A total volume of 950 μL PALBC was received at a concentration of 1 mg/mL (equals 22 μM) in the superdex buffer. This corresponds to a yield of 0.19 mg/L of Hi5 cells. […]
Concentration was measured on a NanoDrop 2000. The concentration was determined to be […]
In general terms: In fluorescence polarisation assays a small probe gives low polarisation when free and higher when bound to something large.

A further test relates to PALB2-IKZF3d. Kind of test: IMiD-induced degradation of PALB2-IKZF3d (Western blot). To be noted: for rescue of pomalidomide-induced PALB2-IKZF3d degradation: 1 μM inhibitor 6 h, then 10 μM pomalidomide 18 h. The test is classed as cell-based. As for the experimental part:
5.1 Degradation of PALB2 and UPP rescue assays
To show PALB2 deegradation, cells were treated with pomalidomide at the indicated concentrations for 24 h. The cells were subsequently lysed and prepared for gel electrophoresis and western blotting.
To show UPP rescue, MG132 and MLN4924 were used to inhibit the ubiquitination-proteasome degradation pathway. The cells were first treated with 1 μM MG132 or 1 μM MLN4924. After 6 h, pomalidomide was added to a final concentration of 10 μM. After 18 h, the cells were collected and lysed.
To show PALB2 recovery, the cells were first treated with 10 μM pomalidomide or 10 μM iberdomide for 24 h. After that, the culture medium was removed, the cells were washed three times with fresh culture medium and then cultured with culture medium without IMiDs.
The cells were then collected an d l yse d . […]
Figure S7. A). Degradation of endogenous PALB2.
B). PALB2 de gra dation rescue expe ri ment. The cells in the degradation rescue group w ere first t reated with 1 μ M MG132 and 1 μ M M LN49 24 for 6 hou rs and then t reated with 10 μ M pomalidomide for 1 8 hours. Cell samples were collected for WB analysis. The asterisk represents a nonspecific band of PALB 2 with t his antibody. […]
In general terms: Immunoblotting shows a protein as a band on a membrane.

The target of the next test is T2, PALB2C (Homo sapiens, UniProt Q86YC2).
T2 construct: C terminal part of Palb2 (aa 835-1186); His tag (C); 3C protease site; host or cells: Hi5 insect cells (virus produced and amplified in Sf9)
T2 sequence (Q86YC2 835-1186): T1 sequence (Q86YC2 835-1186)
Kind of test: Displacement polarization assay (competition with FLU-GG-[…]). To be noted: dark peptide 10 μM, probe FLU-GG-[…] 10 nM, 20 min RT, 25 °C, competitive binding fit.

The mark [3] stands for this setting: truncated BRCA2 peptides, PALB2C source Hi5 (Figure 2B), N = 1-5, read-out: KD (other peptides).
[4] abbreviates: alanine scan of BRCA2 21-35, N = 1-4, read-out: KD (alanine scan).

With `CC[C@@]1(O)C(=O)OCc2c1cc1n(c2=O)Cc2cc3ccccc3nc2-1` [CPT, camptothecin], in test [1], the “synergistic toxicity with PALB2 depletion” value is listed as “noticeable synergistic toxicity”.
For the compound `CC[C@H](C)[C@H](NC(=O)[C@H](CCC(=O)O)NC(=O)[C@H](Cc1ccccc1)NC(=O)[C@H](Cc1ccccc1)NC(=O)[C@@H](NC(=O)CNC(=O)CNC(=O)c1ccc2c(c1)C(=O)OC21c2ccc(O)cc2Oc2cc(O)ccc21)[C@@H](C)O)C(=O)N[C@@H](Cc1ccccc1)C(=O)N[C@@H](CCCCN)C(=O)N[C@H](C(=O)N[C@@H](CCCNC(=N)N)C(=O)N[C@@H](CS)C(=O)N[C@@H](CC(N)=O)C(=O)N[C@@H](CCCCN)C(=O)N[C@@H](C)C(=O)N[C@@H](CC(=O)O)C(=O)N[C@@H](CC(C)C)C(=O)NCC(=O)N1CCC[C@H]1C(=O)N[C@H](C(=O)N[C@@H](CO)C(=O)N[C@@H](CC(C)C)C(=O)N[C@@H](CC(N)=O)C(=O)N[C@@H](Cc1c[nH]c2ccccc12)C(=O)N[C@@H](Cc1ccccc1)C(=O)N[C@@H](CCC(=O)O)C(=O)N[C@@H](CCC(=O)O)C(=O)N[C@@H](CC(C)C)C(=O)N[C@@H](CO)C(=O)N[C@@H](CO)C(=O)N[C@@H](CCC(=O)O)C(=O)N[C@@H](C)C(N)=O)[C@@H](C)CC)[C@@H](C)O` [FAM-GG-BRCA(10-39)] (HELM PEPTIDE1{[O=C1OC2(c3ccc(O)cc3Oc3cc(O)ccc32)c2ccc(C(=O)[*:2])cc21].G.G.T.F.F.E.I.F.K.T.R.C.N.K.A.D.L.G.P.I.S.L.N.W.F.E.E.L.S.S.E.A.[am]}$$$$V2.0; N-terminus and C-terminus assumed), in test [2] (FAM-GG-BRCA(10-39) compared with FAM-GG-BRCA(21-39)), the “gain in binding affinity from residues 12-21” value was 6–10 fold.
As for `O=C1CC[C@H](N2Cc3c(OCc4ccc(CN5CCOCC5)cc4)cccc3C2=O)C(=O)N1` [Iber, iberdomide], the “recovery of PALB2 levels after wash out” value with PALB2-IKZF3d (10 μM IMiD for 24 h, then medium removed and cells washed, knock-in cells) was “PALB2 levels recover after 24 h”. Besides, the “degradation of PALB2 in IKZF3d knock-in cells” value with PALB2-IKZF3d (homozygous IKZF3d knock-in HEK293 cells, 24 h treatment) was “degradation could also be induced”.
Consider `CC(C)C[C@@H](C=O)NC(=O)[C@H](CC(C)C)NC(=O)[C@H](CC(C)C)NC(=O)OCc1ccccc1` [MG132] (Cbz-Leu-Leu-Leu-aldehyde), for which the “rescue of pomalidomide-induced PALB2-IKZF3d degradation” value in the test on PALB2-IKZF3d is on record as “prevented the pomalidomide-induced degradation of PALB2-IKZF 3d”.
Still for that read-out and setting: in the case of `NS(=O)(=O)OC[C@@H]1C[C@@H](n2ccc3c(N[C@H]4CCc5ccccc54)ncnc32)C[C@@H]1O` [MLN4924] it was “prevented the pomalidomide-induced degradation of PALB2-IKZF 3d”.
Turning to `O=C(c1cc(Cc2n[nH]c(=O)c3ccccc23)ccc1F)N1CCN(C(=O)C2CC2)CC1` [olaparib], in test [1], the “synergistic toxicity with PALB2 depletion” value is recorded as “noticeable synergistic toxicity”.
As usually defined, the pKd is the negative decadic logarithm of the Kd, by convention in mol/L. The compound “Cy5-DBCO-GG-BRCA(21-39): Cy5-modified peptide: P38 modified with 2-azidoacetic acid and Cy5-DBCO ({Cy5‑DBCO-Azidoacetyl}-GGKADLGPISLNWFEELSSEA; UniProt P51587 21-39, looked up, fragment)” gave a pKd in test [2] of 7.19.
The same measure, in the same setting: in the case of “FLU-GG-KADLGPISLNWFEELSSEA [FAM-GG-BRCA(21-39), fluorescein-labelled BRCA2(21-39) peptide, Peptide Protein Research Ltd; FP probe]” it was 6.20.
In the case of H-DLGPISLNWFEEL-NH2 [Peptide P8], at PALB2C (setting [3]), the pKd was 5.10.
On the same count and under the same terms, under H-GPISLNWFE-NH2 [Peptide P12] stands 4.75.
The same measure, in the same setting: in the case of H-GPISLNWFEEL-NH2 [Peptide P7] it was 4.09.
As for H-KAALGPISLNWFEEL-NH2 [Peptide P29], the pKd at PALB2C (setting [4]) was 5.34.
The same measure, in the same setting: in the case of H-KADLGAISLNWFEEL-NH2 [Peptide P32] it was 5.44; in that of H-KADLGPASLNWFEEL-NH2 [Peptide P33], 5.28; in that of H-KADLGPIALNWFEEL-NH2 [Peptide P34], 5.31.
On the same count and under the same terms, in the case of H-KADLGPISANWFEEL-NH2 [Peptide P35] it was 5.17.
Same read-out and setting: under H-KADLGPISLAWFEEL-NH2 [Peptide P36] stands 5.40; under H-KADLGPISLNAFEEL-NH2 [Peptide P25], 5.26.
In the case of H-KADLGPISLNWAEEL-NH2 [Peptide P26], on PALB2C (setting [4]), the negative-log Kd (pKd) is 5.00.
Consider H-KADLGPISLNWFAEL-NH2 [Peptide P27], for which, at PALB2C (setting [4]), the pKd is 5.29.
For the compound H-KADLGPISLNWFE-NH2 [Peptide P14], the pKd on PALB2C (setting [3]) is 4.60.
With “H-KADLGPISLNWFEAL-NH2 [Peptide P28, H-KADLGPISLNWFEAL-NH2]”, the negative-log Kd (pKd) at PALB2C (setting [4]) was 5.15.
Take H-KADLGPISLNWFEEL-NH2 [Peptide P9]: the pKd on PALB2C (setting [3]) was 5.30.
